The source of these data is patent EP4410314A1, “COMBINATION THERAPY COMPRISING ANTI-CD22 ANTIBODY-DRUG CONJUGATE AND IRAK1 INHIBITOR” (ADC Therapeutics SA, priority 2023, dated 2024).

The test system of assay [1] is KM-H2. Briefly: In vitro cytotoxicity, KM-H2. In kind it is cell-based, human. The note with it: KM-H2 (HL), CD22-negative; mean ± SEM.
The test system of assay [2] is WSU-DLCL2 xenograft. The experiment in a line: SC WSU-DLCL2 xenograft model. It counts as in vivo, mice. The source says: Ramos, WSU-DLCL2, and KARPAS-299 xenografts were established in 8- to 10-week-old female Fox Chase mice with severe combined immunodeficiency (Charles River Laboratories) by implanting 10^7 cells subcutaneously (SC) into their flanks. When group mean tumor volumes reached approximately 116 to 132 mm^3, mice were randomly allocated into groups to receive the test agent or vehicle. Each animal was euthanized when its tumor reached the end point volume or at the study end. The time to end point (TTE) for analysis was calculated for each mouse by the following equation: TTE (days) = ([log10(end point volume−intercept^(*)]/slope^(*)) [formula] where the * indicates the slope of the line obtained by linear regression of a log-transformed tumor growth data set.
The log-rank test was used to analyze the significance of differences in TTE between the 2 groups. For the disseminated xenografts model, 10^7 REH cells were inoculated intravenously (IV) into 5- to 8-week-old female NOG mice (Taconic Biosciences). Test compounds were administered IV 4 days after tumor cell inoculation. Individual mice were euthanized, and an autopsy was performed when hind leg paralysis (a sign of leukemia development) occurred and/or the body weight decreased ≥20%. The study was terminated on day 62. The log-rank test was used to determine the significance of the differences in overall survival.

Assay [3] relates to REH. The experiment in a line: In vitro cytotoxicity, REH. Particulars: REH (B-ALL), CD22-positive; mean ± SEM. It counts as cell-based, human.
The test system of assay [4] is SEM cells. Briefly: In vitro cytotoxicity, SEM. In kind it is cell-based, human. The note with it: SEM (B-ALL), CD22-positive; mean ± SEM.
Assay [5] concerns PMBCL. The experiment in a line: In vitro cytotoxic activity, lymphoma cell line panel: PMBCL. In kind it is cell-based, human. The note with it: 1 cell line, read-out: Median IC50.
For assay [6], the system named is KARPAS-299. The experiment in a line: DNA interstrand crosslinks, single cell gel electrophoresis (Comet) assay, KARPAS-299. It counts as cell-based, human. Particulars: KARPAS-299 (CD22-negative), over 48 hours following a 2-hour treatment. As for the experimental part: Quantification of in vitro DNA interstrand crosslinks (ICLs) was performed using the single cell gel electrophoresis (Comet) assay.
DNA ICLs were measured using a modification of the single-cell gel electrophoresis (Comet) assay, and crosslinking was expressed as the percentage decrease in Olive tail moment (OTM) versus control irradiated cells. […] Immediately after the drug incubation period, a low level of ICLs (3%) was observed, which increased over time to near peak levels (≈50%) at 12 hours and persisted up to 48 hours. […] In this cell line, SG3199 produced a high level of ICL (≈50%), similar to that observed in the Ramos cell line.

The test system of assay [7] is CD22-negative KARPAS-299 cells. Briefly: Bystander killing by conditioned medium transfer. It counts as cell-based, human. Particulars: for percentage survival of KARPAS-299 cells: 96 hours incubation. As for the experimental part: The ADCT-602-conditioned medium elicited a bystander effect after 1 day of pretreatment, as shown by a decrease in the percentage survival in the conditioned medium-treated KARPAS-299 cells, compared with the nonconditioned medium (97% to 78%, P = .001). The bystander effect increased after 2 to 3 days of preincubation in Ramos cells, as shown by a further decrease in the percentage of cell survival compared with the nonconditioned medium (66% and 62%, P < .0001).

Assay [8] concerns MEC-2. The experiment in a line: In vitro cytotoxicity, MEC-2. Particulars: MEC-2 (CLL), CD22-positive; mean ± SEM. It counts as cell-based, human.
Where [9] appears, read: single dose 3 mg/kg, end of the study (day 59).

For “ADCT-602: novel ADC targeting CD22 that consists of humanized monoclonal antibody hLL2-C220, sitespecifically conjugated to the pyrrolobenzodiazepine (PBD) dimer-based payload tesirine”, the IC50 (in general, the midpoint of a concentration-inhibition curve) in assay [1] was 11.4 ± 1.11 nM; in assay [3], 0.05 ± 0.006 nM; in assay [4], 0.52 ± 0.08 nM; in assay [5], 0.035 nM; in assay [8], 0.18 ± 0.05 nM. In assay [2] (setting [9]), the CRs was 7/10. Besides, the partial responders in assay [2] (setting [9]) is on record as 3/10. In assay [2] (setting [9]), the tumor-free survivors was 2/10. Further, the “antitumor activity compared with the vehicle and the isotype control ADC” value in assay [2] (single dose at 1 and 3 mg/kg) is given as “dose-dependent antitumor activity”. Also, the “DNA ICLs, percentage decrease in Olive tail moment (OTM) versus control irradiated cells” value in assay [6] is listed as “≈ 15%”. Also, the “change in percentage of cell survival compared with the nonconditioned medium” value in assay [7] (conditioned medium from ADCT-602-treated, CD22-negative NCI-N87 cells) was “no significant change”. The “percentage survival of KARPAS-299 cells” value in assay [7] (conditioned medium from Ramos cells treated with ADCT-602 for 1 day) amounted to 78%; in assay [7] (conditioned medium from Ramos cells treated with ADCT-602 for 2 days), 66%; in assay [7] (conditioned medium from Ramos cells treated with ADCT-602 for 3 days), 62%; in assay [7] (nonconditioned medium, comparator for 1 day pretreatment), 97%.
